# From article PMC8588462, “Hybrid Chelator-Based PSMA Radiopharmaceuticals: Translational Approach” (Molecules, 2021)
# Target: T1, Prostate-specific membrane antigen (PSMA) (Homo sapiens, UniProt Q04609)
# T1 construct: gene FOLH1; native full-length membrane protein on intact LNCaP prostate cancer cells; homodimer (known biology)
# Experiment: competitive radioligand binding, LNCaP cells, filter plates
# Type: cell-based
# Conditions: 0.75 nM [68Ga]Ga-PSMA-10 tracer, room temperature, 45 min; non-labelled ligand (no metal)
# Source text: competitive radioligand binding, LNCaP cells, filter plates on Prostate-specific membrane antigen (PSMA)
# T1 sequence (Q04609 whole entry): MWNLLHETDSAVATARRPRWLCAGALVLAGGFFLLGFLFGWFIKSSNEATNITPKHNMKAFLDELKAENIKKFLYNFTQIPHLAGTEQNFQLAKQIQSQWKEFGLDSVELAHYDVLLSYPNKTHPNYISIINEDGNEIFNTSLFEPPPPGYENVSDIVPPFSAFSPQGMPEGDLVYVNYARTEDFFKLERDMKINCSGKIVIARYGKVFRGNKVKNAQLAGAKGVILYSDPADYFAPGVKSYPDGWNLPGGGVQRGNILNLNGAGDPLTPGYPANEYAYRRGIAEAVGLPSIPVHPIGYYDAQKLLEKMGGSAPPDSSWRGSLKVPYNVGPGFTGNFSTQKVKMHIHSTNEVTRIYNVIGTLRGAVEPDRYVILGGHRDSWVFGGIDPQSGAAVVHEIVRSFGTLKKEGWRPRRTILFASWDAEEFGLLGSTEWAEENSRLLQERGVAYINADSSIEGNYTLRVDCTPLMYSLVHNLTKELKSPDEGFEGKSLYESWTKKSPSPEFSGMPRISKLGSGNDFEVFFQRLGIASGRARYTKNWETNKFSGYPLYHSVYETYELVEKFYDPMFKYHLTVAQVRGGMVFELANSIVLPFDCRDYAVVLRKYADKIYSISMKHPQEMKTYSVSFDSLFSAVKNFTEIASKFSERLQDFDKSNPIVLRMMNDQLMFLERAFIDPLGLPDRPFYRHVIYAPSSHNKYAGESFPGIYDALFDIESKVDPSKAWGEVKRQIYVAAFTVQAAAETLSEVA
row,IC50,SMILES
1,26.2 ± 2.4 nM,O=C(O)CCc1ccc(O)c(CN(CCN(CC(=O)O)Cc2cc(CCC(=O)NCCCCCC(=O)NCCCC[C@H](NC(=O)N[C@@H](CCC(=O)O)C(=O)O)C(=O)O)ccc2O)CC(=O)O)c1 [PSMA-11]
2,51.1 ± 5.5 nM,"CN(CC(=O)O)C1(CCCCC(=O)NCCNc2c(NCCCC[C@H](NC(=O)N[C@@H](CCC(=O)O)C(=O)O)C(=O)O)c(=O)c2=O)CN(CC(=O)O)CCN(CC(=O)O)C1 [compound 14, DATA^5m.SA.KuE]"
